Consider two compounds from patent US9828343B2, “Histone demethylase inhibitors” (Celgene Quanticel Research, Inc., priority 2012, dated 2017).

The experiment concerns the target JMJD2C (Homo sapiens (Human), UniProt Q9H3R0). As to the kind of experiment: JMJD2C TR-FRET in vitro enzyme inhibition assay. The class given is biochemical. The conditions noted are these: 0.3 nM JMJD2C, H3K9me3-biotin peptide, 2 μM alpha-ketoglutaric acid. The source says:
This assay determines the ability of a test compound to inhibit Jarid1A, Jarid1B, and JMJD2C demethylase activity. Baculovirus expressed Jarid1A (GenBank Accession #NM_001042603, AA1-1090) was purchased from BPS Bioscience (Cat#50110). Baculovirus expressed Jarid1B (GenBank Accession #NM_006618, AA 2-751) was purchased from BPS Bioscience (Cat #50121) or custom made by MolecularThroughput. Baculovirus-expressed JMJD2C (GenBank Accession #BC143571, AA 2-372) was purchased from BPS Bioscience (Cat#50105).
The ability of test compounds to inhibit the activity of JMJD2C was determined in 384-well plate format under the following reaction conditions: 0.3 nM JMJD2C, 300 nM H3K9me3-biotin labeled peptide (Anaspec cat #64360), 2 μM alpha-ketoglutaric acid in assay buffer of 50 mM HEPES, pH7.3, 0.005% Brij35, 0.5 mM TCEP, 0.2 mg/ml BSA, 50 μM sodium L-ascorbate, and 2 μM ammonium iron(II) sulfate. Reaction product was determined quantitatively by TR-FRET after the addition of detection reagent Phycolink Streptavidin-allophycocyanin (Prozyme) and Europium-anti-di-methylated histone H3 lysine 9 (H3K9me2) antibody (PerkinElmer) in the presence of 5 mM EDTA in LANCE detection buffer (PerkinElmer) at a final concentration of 50 nM and 1 nM, respectively. […]
In general terms: In TR-FRET formats the signal depends on donor and acceptor labels being close together.

pIC50: −log10 of the molar value.

JMJD2C, sequence (Q9H3R0 2-372): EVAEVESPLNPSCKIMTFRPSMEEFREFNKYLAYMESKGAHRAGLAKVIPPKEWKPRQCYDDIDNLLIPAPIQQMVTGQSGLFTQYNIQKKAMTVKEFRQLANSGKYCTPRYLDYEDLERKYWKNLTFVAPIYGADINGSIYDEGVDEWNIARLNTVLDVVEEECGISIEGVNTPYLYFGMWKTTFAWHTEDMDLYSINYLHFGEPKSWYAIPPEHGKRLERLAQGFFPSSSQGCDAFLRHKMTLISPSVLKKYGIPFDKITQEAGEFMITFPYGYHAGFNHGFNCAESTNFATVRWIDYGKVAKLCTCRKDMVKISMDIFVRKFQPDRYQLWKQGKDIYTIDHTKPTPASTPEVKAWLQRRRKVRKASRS

Turning to “3-{[(6-fluoro-3,4-dihydro-2H-chromen-4-yl)methyl]amino}pyridine-4-carboxylic acid [Example 65]”, the pIC50 (as a rule, −log10 of the IC50, conventionally taken in molar units) is > 7.00.
For the compound `O=C(O)c1ccncc1NCC1(O)CCCc2cc(Cl)ccc21` (centres unmarked) [Example 68, 3-{[(6-chloro-1-hydroxy-1,2,3,4-tetrahydronaphthalen-1-yl)methyl]amino}pyridine-4-carboxylic acid], the pIC50 was 6.00 to 7.00.
